Data: patent US6696476B2, “Pyranoindazoles and their use for the treatment of glaucoma” (Alcon, Inc., priority 2001, dated 2004)
Counter-ions that a name gives are not always drawn. Like-named read-outs stand apart in the source and are kept apart here.

Columns and labels:
5-HT2A Receptor [1] = target: T1, 5-HT2A Receptor (Rattus norvegicus, UniProt P14842); assay: 5-HT2 Functional Assay: [Ca2+]i Mobilization (FLIPR, A7r5 cells); assay type: cell-based; parameters: endogenous in cells; host or cells: A7r5 rat vascular smooth muscle cells; conditions: for EC50: [Ca2+]i mobilization, A7r5 rat vascular smooth muscle cells; for Emax: read-out: Efficacy (Emax, %)
T1 sequence (P14842 whole entry): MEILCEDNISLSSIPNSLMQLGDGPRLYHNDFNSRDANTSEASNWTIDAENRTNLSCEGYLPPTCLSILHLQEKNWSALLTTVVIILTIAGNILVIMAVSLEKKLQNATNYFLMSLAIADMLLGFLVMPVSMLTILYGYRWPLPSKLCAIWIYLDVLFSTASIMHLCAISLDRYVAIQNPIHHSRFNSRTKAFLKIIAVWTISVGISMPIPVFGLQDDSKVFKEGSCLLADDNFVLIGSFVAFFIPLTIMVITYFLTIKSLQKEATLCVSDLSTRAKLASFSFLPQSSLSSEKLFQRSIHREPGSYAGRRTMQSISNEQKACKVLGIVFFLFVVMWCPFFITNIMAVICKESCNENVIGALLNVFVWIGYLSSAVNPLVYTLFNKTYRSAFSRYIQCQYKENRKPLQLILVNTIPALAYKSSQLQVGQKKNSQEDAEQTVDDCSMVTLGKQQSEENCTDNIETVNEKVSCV
Protocol: The receptor-mediated mobilization on intracellular calcium ([Ca^2+]i) was studied using the Fluorescence Imaging Plate Reader (FLIPR) instrument. Rat vascular smooth muscle cells, A7r5, were grown in a normal media of DMEM/10% FBS and 10 μg/mL gentamycin. Confluent cell monolayers were trypsinized, pelleted, and re-suspended in normal media. Cells were seeded in a 50 μL volume at a density of 20,000 cells/well in a black wall, 96-well tissue culture plate and grown for 2 days.
On the day of the experiment, one vial of FLIPR Calcium Assay Kit dye was re-suspended in 50 mL of a FLIPR buffer consisting of Hank's Balanced Salt Solution (HBSS), 20 mM HEPES, and 2.5 mM probenecid, pH 7.4. Cells were loaded with the calcium-sensitive dye by addition of an equal volume (50 μL) to each well of the 96-well plate and incubated with dye for 1 h at 23° C.
Compounds were diluted 1:50 in 20% DMSO/20% Ethanol. For “hit” screening, compounds were further diluted 1:10 in FLIPR buffer and tested at a final concentration of 10 μM.
The compound plate and cell plate were placed in the FLIPR instrument. At the beginning of an experimental run, a signal test was performed to check the basal fluorescence signal from the dye-loaded cells and the uniformity of the signal across the plate. The basal fluorescence was adjusted between 8000-12000 counts by modifying the exposure time, the camera F-stop, or the laser power. Instrument settings for a typical assay were the following: laser power 0.3-0.6 W, camera F-stop F/2, and exposure time 0.4 sec. An aliquot (25 μL) of the test compound was added to the existing 100 μL dye-loaded cells at a dispensing speed of 50 μL/sec. Fluorescence data were collected in real-time at 1.0 sec intervals for the first 60 secs and at 6.0 sec intervals for an additional 120 secs.

5-HT2A Receptor [2] = target: T1, 5-HT2A Receptor; assay: 5-HT2 Receptor Binding Assay ([125I]DOI competition); parameters: species or system rat or human; conditions: 5-HT2A receptor binding; [125I]DOI displacement, cerebral cortex homogenates
Protocol: Aliquots of post mortem rat or human cerebral cortex homogenates (400 μL) dispersed in 50 mM Tris HCl buffer (pH 7.4) are incubated with [^125I]DOI (80 pM final) in the absence or presence of methiothepin (10 μM final) to define total and non-specific binding, respectively, in a total volume of 0.5 mL. The assay mixture is incubated for 1 hour at 23° C. in polypropylene tubes and the assays terminated by rapid vacuum filtration over Whatman GF/B glass fiber filters previously soaked in 0.3% polyethyleneimine using ice-cold buffer. Test compounds (at different concentrations) are substituted for methiothepin. Filter-bound radioactivity is determined by scintillation spectrometry on a beta counter. The data are analyzed using a non-linear, iterative curve-fitting computer program [Trends Pharmacol. Sci., 16, 413 (1995)] to determine the compound affinity parameter. The concentration of the compound needed to inhibit the [^125I]DOI binding by 50% of the maximum is termed the IC50 or Ki value.

intraocular pressure = assay: IOP Response in Conscious Cynomolgus Monkeys; assay type: in vivo
IOP [3] = conditions: monkey; attributed to α1A receptor activity; cited from earlier work
IOP [4] = conditions: rabbits; cited from earlier work
[5] = percentage of a maximum 5-HT-induced response, A7r5 cells
[6] = 3 hours after dose, dose 300 μg
[7] = 6 hours after dose, dose 300 μg

SMILES | melting point [°C] | IC50 (5-HT2A Receptor [2]) [nM] | EC50 (5-HT2A Receptor [1]) [nM] | Emax (5-HT2A Receptor [1]; [5]) [%] | also measured
C[C@@H](N)Cn1ncc2ccc3c(c21)CC(O)CO3.Cl (stereo partly drawn) | 82 to 86 |  |  |  | 
NCCc1c[nH]c2ccc(O)cc12 [Example 5-HT, 5-Hyroxytryptamine, reference compound] |  |  |  |  | Efficacy (Emax, %) (5-HT2A Receptor [1]; [5]): 101%
C[C@H](N)Cn1ncc2ccc3c(c21)C[C@@H](OCCO)CO3.Cl.Cl [Example 13, 2-[(R)-1-((S)-2-Aminopropyl)-1,7,8,9-tetrahydro-pyrano[2,3-g]indazol-8-yloxy]-ethanol Dihydrochloride] | > 100 | 3.38 | 121 | 87 | Percent IOP Reduction ± SEM (intraocular pressure; 1 hour after dose, dose 300 μg): 8.3 ± 2.64%; Percent IOP Reduction ± SEM (intraocular pressure; [6]): 21.4 ± 4.18%; Percent IOP Reduction ± SEM (intraocular pressure; [7]): 28.4 ± 3.36%
C[C@H](N)Cc1n[nH]c2ccc3c(c12)CCCO3 [Example 17, (S)-1-Methyl-2-(3,7,8,9-tetrahydro-pyrano[3,2-e]indazol-1-yl)-ethylamine] |  | 0.79 | 154 | 88 | 
C[C@H](N)Cn1ncc2ccc3c(c21)C[C@@H](OCC(=O)OC(C)(C)C)CO3 [Example 16, [(R)-1-((S)-2-Amino-propyl)-1,7,8,9-tetrahydro-pyrano[2,3-g]indazol-8-yloxy]acetic Acid Tert-butyl Ester Dihydrochloride] |  | 1.94 | 424 | 73 | 
C[C@H](N)Cn1ncc2ccc3c(c21)C[C@H](O)CO3 [Example 5, (S)-1-((S)-2-Aminopropyl)-1,7,8,9-tetrahydro-pyrano[2,3-g]indazol-8-ol] |  | 3.44 | 226 | 70 | Percent IOP Reduction ± SEM (intraocular pressure; 1 hour after dose, dose 300 μg): 7.9 ± 4.06%; Percent IOP Reduction ± SEM (intraocular pressure; [6]): 17.3 ± 3.87%; Percent IOP Reduction ± SEM (intraocular pressure; [7]): 25.1 ± 4.76%
C[C@H](N)Cn1ncc2ccc3c(c21)C[C@@H](N)CO3.Cl.Cl.Cl [Example 6, (R)-1-((S)-2-Amino-propyl)-1,7,8,9-tetrahydro-pyrano[2,3-g]indazol-8-ylamine Trihydrochloride] | > 300 | 6.56 | 175 | 87 | 
C[C@H](N)Cn1ncc2ccc3c(c21)C(N)C(O)CO3 (stereo partly drawn) | 84 to 88 |  |  |  | 
C[C@H](N)Cn1ncc2ccc3c(c21)C[C@@H](OCC(N)=O)CO3 [Example 15, 2-[(R)-1-((S)-2-Aminopropyl)-1,7,8,9-tetrahydro-pyrano[2,3-g]indazol-8-yloxy]-acetamide] |  | 2.87 | 178 | 95 | 
C[C@H](N)Cn1ncc2ccc3c(c21)CCCO3.Cl.Cl [Example 8, (S)-2-(8,9-Dihydro-7H-pyrano[2,3-g]indazol-1-yl)-1-methyl-ethylamine Dihydrochloride] | 95 to 98 | 0.686 | 90 | 85 | 
C[C@H](N)Cn1ncc2ccc3c(c21)C[C@@H](O)CO3 [Example 4, (R)-1-((S)-2-Aminopropyl)-1,7,8,9-tetrahydro-pyrano[2,3-g]indazol-8-ol] | 126 to 128 | 2.25 | 65.3 | 92 | Percent IOP Reduction ± SEM (intraocular pressure; 1 hour after dose, dose 300 μg): 7.68 ± 2.91%; Percent IOP Reduction ± SEM (intraocular pressure; [6]): 25.8 ± 3.53%; Percent IOP Reduction ± SEM (intraocular pressure; [7]): 30.2 ± 4.48%
C[C@H](N)Cc1n[nH]c2ccc3c(c12)CCCO3 (as salt: hydrochloride) [Example 17, (S)-1-Methyl-2-(3,7,8,9-tetrahydro-pyrano[3,2-e]indazol-1-yl)-ethylamine] | 235 to 240 |  |  |  | 
C[C@H](N)Cn1ncc2ccc3c(c21)C=CCO3 [Example 9, (S)-1-Methyl-2-(7H-pyrano[2,3-g]indazol-1-yl)-ethylamine] |  | 0.274 | 41.4 | 91 | 
COC1c2c(ccc3cnn(C[C@H](C)N)c23)OCC1O (stereo partly drawn) | 105 to 108 |  |  |  | 
C[C@H](N)Cn1ncc2ccc3c(c21)CC(O)CO3 (stereo partly drawn) [Example 3, 1-((S)-2-Aminopropyl)-1,7,8,9-tetrahydro-pyrano[2,3-g]indazol-8-ol] | 46 to 51 | 2.19 | 145 | 85 | 
C[C@H](N)Cn1ncc2ccc3c(c21)[C@H](O)[C@H](O)CO3 (relative stereo) [Example 7, (8R*,9S*)-1-((S)-2-Amino-propyl)-1,7,8,9-tetrahydro-pyrano[2,3-g]indazole-8,9-diol] | 115 to 117 | 3.73 | 194 | 85 | 
COc1cc(C[C@@H](C)N)c(OC)cc1I [(R)-DOI, reference compound] |  |  |  |  | Percent IOP Reduction ± SEM (intraocular pressure; 1 hour after dose, dose 100 μg): 11.0 ± 4.98%; Percent IOP Reduction ± SEM (intraocular pressure; 3 hours after dose, dose 100 μg): 25.3 ± 2.97%; Percent IOP Reduction ± SEM (intraocular pressure; 6 hours after dose, dose 100 μg): 34.4 ± 4.98%
COc1ccccc1N1CCN(CCCNc2c(C)c(=O)n(C)c(=O)n2C)CC1 [5-methylurapidil] |  |  |  |  | effect on IOP (IOP [3]): lowers IOP
CCCN(CCC)C1CCc2cccc(O)c2C1 (stereo not drawn) [Example 8-OH-DPAT, 8-hydroxydipropylaminotetralin] |  |  |  |  | effect on IOP (IOP [4]): reduces IOP
CC(=O)NCCO[C@H]1COc2ccc3cnn(C[C@H](C)N)c3c2C1 [Example 14, N-[2-[(R)-1-((S)-2-Aminopropyl)-1,7,8,9-tetrahydropyrano[2,3-g]indazol-8-yloxy]-ethyl]acetamide] | 165 to 166 | 5.34 | 202 | 86 | 
CC(N)Cn1ncc2ccc3c(c21)CC(O)CO3 (stereo not drawn) | 124 to 125 |  |  |  | 
